Test results: patent US7423008B2, “Derivatives of mithramycin and methods of making and uses thereof” (University of Kentucky Research Foundation, priority 2004, dated 2008)

How the values were obtained:
CNS (SF-268) = test: Proliferation inhibition assay (sulforhodamin B uptake), CNS cells; type: cell-based
Method: (§1) The experiment was performed by Biotecon, Berlin. It measures the uptake of sulforhodamin B (SRB), which is dependent on the cellular protein quantities, and can be performed in 96-well microtiter plates according to the protocol published by Boyd et al. (NCI). The SRB assay is a rapid and sensitive method to measure drug-induced cytotoxicity. Briefly, cells will be incubated with and without drug for 72 hours (drugs will be added after 24 hours), fixed with TCA (trichloroacetic acid), and stained for 30 minutes using a 0.4% (w/v) SRB solution in […]. Cultures will then be rinsed with 1% acetic acid, residual wash solution will be removed and air-dried. Bound dye will be solubilized with 10 mM unbuffered Tris base (pH 10.5) for 5 min., and the optical density (OD) will be measured with amicrotiter plate reader at 564 nm. (Skehan, P. et al., “New calorimetric cytotoxicity assay for anticancer-drug screening,” Journal of the National Cancer Institute, 1990. 82(13): p. 1107-1112).

Lung (NCI-H460) = test: Proliferation inhibition assay (sulforhodamin B uptake), lung cells; type: cell-based
Method: as §1

Breast (MCF-7) = test: Proliferation inhibition assay (sulforhodamin B uptake), breast cells; type: cell-based; conditions: concentration 1 × 10^−5 molar
Method: as §1

Breast cancer cell lines = test: Sulforhodamine B assay, 60 cell line panel: breast; type: cell-based, human; conditions: for GI50: Homo sapiens, 60 cell, 8 cell lines, read-out: Average Log(GI50) (converted); for AIF (activity improvement factor, 10^Δ1−x): versus 1
Method: (§2) The cytotoxicity of Mithramycin-SK and demycarosyl-mithramycin-SK were assessed in a panel of 60 cell lines using a sulforhodamine B assay. It is active against a variety of tumor cell lines in the concentration range of 10^−5 to 10^−8 molar. Cell lines were inoculated into a series of 96-well microliter plates with varying seeding densities depending on the growth characteristics of the particular cell lines. Following a 24 hour drug-free incubation, mithramycin-SK was added routinely at five 10-fold dilutions with maximum concentration of […]. After 48 hours of drug exposure, the change in protein stain optical density allowed the inhibition of cell growth to be analyzed.

Squamous carcinoma = test: Neutral red assay, squamous carcinoma; type: cell-based; conditions: for GI50: read-out: Average Log(GI50) (converted)
Source text: (§3) Mithramycin-SK was particularly active against melanoma, leukemia, and CNS cancer cells (log(GI50) values of −7.64, −7.59, and −7.61, respectively).

[1] = tested on: squamous, melanoma, lung, and breast carcinomas; test: Neutral red uptake analysis of carcinomas, overall; type: cell-based; conditions: cells not given
Source text: as §3

[2] = tested on: non-tumorous mouse fibroblast cells (NIH 3T3); test: Neutral red toxicity assay on non-tumorous fibroblasts; type: cell-based; conditions: for IC50: NIH3T3, neutral red
Method: Mithramycin-SK and demycarosyl-mithramycin-SK were also tested in a neutral red toxicity assay. In this experiment, non-tumorous mouse fibroblast cells were used (NIH 3T3).
as §3

Lung carcinoma = test: Neutral red assay, lung carcinoma; type: cell-based; conditions: for GI50: read-out: Average Log(GI50) (converted)
Source text: as §3

Renal cancer cell lines = test: Sulforhodamine B assay, 60 cell line panel: renal; type: cell-based, human; conditions: for GI50: Homo sapiens, 60 cell, 8 cell lines, read-out: Average Log(GI50) (converted); for AIF (activity improvement factor, 10^Δ1−x): versus 1
Method: as §2

[3] = tested on: 60 human cancer cell lines; test: Sulforhodamine B cytotoxicity assay, whole panel of 60 cell lines (NCI); type: cell-based
Method: The mithramycin SK has antitumor activity substantially higher than that of MTM and is particularly active against melanoma, leukemia and CNS cancer cells.
as §2

NSCLC cell lines = test: Sulforhodamine B assay, 60 cell line panel: NSCLC; type: cell-based, human; conditions: for GI50: Homo sapiens, 60 cell, 8 cell lines, read-out: Average Log(GI50) (converted); for AIF (activity improvement factor, 10^Δ1−x): versus 1
Method: as §2

Colon cancer cell lines = test: Sulforhodamine B assay, 60 cell line panel: colon; type: cell-based, human; conditions: for GI50: Homo sapiens, 60 cell, 7 cell lines, read-out: Average Log(GI50) (converted); for AIF (activity improvement factor, 10^Δ1−x): versus 1
Method: as §2

Breast carcinoma = test: Neutral red assay, breast carcinoma; type: cell-based; conditions: for GI50: read-out: Average Log(GI50) (converted)
Source text: as §3

Melanoma = test: Neutral red assay, melanoma; type: cell-based; conditions: for GI50: read-out: Average Log(GI50) (converted)
Source text: as §3

[4] = tested on: Ovarian cancer cell lines; test: Sulforhodamine B assay, 60 cell line panel: ovarian; type: cell-based, human; conditions: for GI50: Homo sapiens, 60 cell, 6 cell lines, read-out: Average Log(GI50) (converted); for AIF (activity improvement factor, 10^Δ1−x): versus 1
Method: as §2

CNS cancer cells = test: Sulforhodamine B assay, 60 cell line panel: CNS; type: cell-based, human; conditions: for GI50: Homo sapiens, 60 cell, 5 cell lines, read-out: Average Log(GI50) (converted); for AIF (activity improvement factor, 10^Δ1−x): versus 1
Method: as §2

Leukemia cell lines = test: Sulforhodamine B assay, 60 cell line panel: leukemia; type: cell-based, human; conditions: for GI50: Homo sapiens, 60 cell, 5 cell lines, read-out: Average Log(GI50) (converted); for AIF (activity improvement factor, 10^Δ1−x): versus 1
Method: as §2

[5] = tested on: Prostrate cancer cell lines; test: Sulforhodamine B assay, 60 cell line panel: prostate; type: cell-based, human; conditions: for GI50: Homo sapiens, 60 cell, 2 cell lines, read-out: Average Log(GI50) (converted); for AIF (activity improvement factor, 10^Δ1−x): versus 1
Method: as §2

Melanoma cell lines = test: Sulforhodamine B assay, 60 cell line panel: melanoma; type: cell-based, human; conditions: for GI50: Homo sapiens, 60 cell, 8 cell lines, read-out: Average Log(GI50) (converted); for AIF (activity improvement factor, 10^Δ1−x): versus 1
Method: as §2

[6] = concentration 1 × 10^−4.6 molar
[7] = mouse 3T3 fibroblast (nontumor) cells

| SMILES | Percent Growth in 48 Hours, CNS (SF-268) (CNS (SF-268); concentration 1 × 10^−5 molar) [%] | Percent Growth in 48 Hours, Lung (NCI-H460) (Lung (NCI-H460); concentration 1 × 10^−5 molar) [%] | Percent Growth in 48 Hours, Breast (MCF-7) (Breast (MCF-7)) [%] | GI50 (Breast cancer cell lines) [nM] | AIF (activity improvement factor, 10^Δ1−x) (Breast cancer cell lines) | GI50 (Squamous carcinoma) [µM] | IC50 [2, 7] [µM] | GI50 (Lung carcinoma) [µM] | GI50 (Renal cancer cell lines) [nM] | AIF (activity improvement factor, 10^Δ1−x) (Renal cancer cell lines) | GI50 (NSCLC cell lines) [nM] | AIF (activity improvement factor, 10^Δ1−x) (NSCLC cell lines) | GI50 (Colon cancer cell lines) [nM] | AIF (activity improvement factor, 10^Δ1−x) (Colon cancer cell lines) | GI50 (Breast carcinoma) [µM] | GI50 [4] [nM] | GI50 (CNS cancer cells) [nM] | GI50 (Leukemia cell lines) [nM] | GI50 [5] [nM] | GI50 (Melanoma cell lines) [nM] | other results |
| --- | --- | --- | --- | --- | --- | --- | --- | --- | --- | --- | --- | --- | --- | --- | --- | --- | --- | --- | --- | --- | --- |
| CO[C@@H]1C(=O)C(C(C)=O)=C(O)[C@@]2(O[C@H]3C[C@@H](O[C@H]4C[C@@H](O[C@H]5C[C@](C)(O)[C@H](O)[C@@H](C)O5)[C@@H](O)[C@@H](C)O4)[C@H](O)[C@@H](C)O3)C(=O)c3c(cc4cc(O[C@H]5C[C@@H](O[C@H]6C[C@@H](O)[C@H](O)[C@@H](C)O6)[C@H](O)[C@@H](C)O5)c(C)c(O)c4c3O)C[C@@H]12 [Premithramycin B, reference compound] | >100 | >100 | >100 | – | – | – | – | – | – | – | – | – | – | – | – | – | – | – | – | – | – |
| CO[C@@H]1C(=O)C(C(C)=O)=C(O)[C@@]2(O[C@H]3C[C@@H](O)[C@H](O)[C@@H](C)O3)C(=O)c3c(cc4cc(O)cc(O)c4c3O)C[C@@H]12 [Premithramycin A1, reference compound] | – | – | – | – | – | – | – | – | – | – | – | – | – | – | – | – | – | – | – | – | Percent Growth in 48 Hours, CNS (SF-268) (CNS (SF-268); [6]): 93%; Percent Growth in 48 Hours, Lung (NCI-H460) (Lung (NCI-H460); [6]): 68% |
| COC(C(O)C(C)=O)[C@@H]1Cc2cc3cc(OC4CC(OC5CC(O)C(O)C(C)O5)C(O)C(C)O4)c(C)c(O)c3c(O)c2C(=O)[C@H]1OC1CC(OC2CC(OC3CC(C)(O)C(O)C(C)O3)C(O)C(C)O2)C(O)C(C)O1 (stereo partly drawn) [Mithramycin-SK, mithramycin-SK] | 1 | 0.1 | 0.2 | 1290 | 0.2 | 1.02 | 19.6 | 0.132 | 51.3 | 3.6 | 42.7 | 4.4 | 47.9 | 4.7 | 0.182 | 29.5 | 24.5 | 25.7 | 33.1 | 22.9 | AIF (activity improvement factor, 10^Δ1−x) (Squamous carcinoma; versus 1): 8.9; concentrations revealing antiproliferative activity [1]: < 1 µg/mL; toxicity (concentration still without toxicity) ([2]; NIH 3T3, after 24 hours of incubation): > 200 µg/mL; toxicity compared to parent compound MTM ([2]; in vitro toxicity assay): two orders of magnitude lesser toxicity; fold less toxic than MTM ([2]; mouse 3T3 fibroblast (nontumor) cells, ratio of IC50 values): more than 1500 fold; AIF (activity improvement factor, 10^Δ1−x) (Lung carcinoma; versus 1): 91.2; activity, times higher than that of MTM ([3]; compilation of the average log(GI50) values): up to 9 times; antitumor activity compared to parent compound MTM ([3]; initial in vitro anticancer assays by the NCI, 60 human cancer cell lines): up to two orders of magnitude better antitumor activity; AIF (activity improvement factor, 10^Δ1−x) (Breast carcinoma; versus 1): 61.6; GI50 (Melanoma): 0.562 µM; AIF (activity improvement factor, 10^Δ1−x) (Melanoma; versus 1): 15.8; AIF (activity improvement factor, 10^Δ1−x) [4]: 8.5; AIF (activity improvement factor, 10^Δ1−x) (CNS cancer cells): 6.8; AIF (activity improvement factor, 10^Δ1−x) (Leukemia cell lines): 8.7; AIF (activity improvement factor, 10^Δ1−x) [5]: 3.8; AIF (activity improvement factor, 10^Δ1−x) (Melanoma cell lines): 8.3 |
| CO[C@H](C(=O)[C@@H](O)[C@@H](C)O)[C@@H]1Cc2cc3cc(OC4CC(OC5CC(O)C(O)C(C)O5)C(O)C(C)O4)c(C)c(O)c3c(O)c2C(=O)[C@H]1OC1CC(OC2CC(OC3CC(C)(O)C(O)C(C)O3)C(O)C(C)O2)C(O)C(C)O1 (stereo partly drawn) [Mithramycin] | – | 12 | 12 | 257 | – | 9.12 | 0.00345 to 0.0129 | 12 | 186 | – | 186 | – | 224 | – | 11.2 | 251 | 166 | 224 | 126 | 191 | GI50 (Melanoma): 8.91 µM |
| COC(C(O)C(C)=O)[C@@H]1Cc2cc3cc(OC4CC(OC5CC(O)C(O)C(C)O5)C(O)C(C)O4)c(C)c(O)c3c(O)c2C(=O)[C@H]1OC1CC(OC2CC(O)C(O)C(C)O2)C(O)C(C)O1 (stereo partly drawn) [Demycarosyl-Mithramycin-SK, Demycarosyl-mithramycin-SK] | 47 | 5 | 22 | 7080 | 0.04 | – | – | – | 7240 | 0.03 | 5010 | 0.04 | 4470 | 0.05 | – | 5890 | 5010 | 2820 | 5620 | 4270 | AIF (activity improvement factor, 10^Δ1−x) [4]: 0.04; AIF (activity improvement factor, 10^Δ1−x) (CNS cancer cells): 0.03; AIF (activity improvement factor, 10^Δ1−x) (Leukemia cell lines): 0.08; AIF (activity improvement factor, 10^Δ1−x) [5]: 0.02; AIF (activity improvement factor, 10^Δ1−x) (Melanoma cell lines): 0.04 |
